# Tested on: capsular contracture
# Experiment: Clinical cases: topical treatment of breast capsular contracture, Baker grading
# Format: in vivo, human
# Conditions: Patient #1; bilateral Grade 3 capsular contracture, after first revision; given together with massage
# Source text: Wash and dry the affected area (that is, the skin surrounding the implant or the skin over the capsular contracture) prior to use. Apply the composition daily (use sparingly) with vigorous massage to affected area. If necessary, exert compression or pressure when massaging to break up existing capsule. Enhanced absorption is obtained with application of the composition following a hot shower. Occlusive dressing (hydrogel), or tight clothing (sports bras), will also enhance the result. Continued daily use will yield optimal results. […] Optimal results are best maintained with daily continued application. One particularly useful embodiment of the invention involves the use of the topical compositions for the treatment/prevention of capsular contracture in breast surgery (e.g., breast implants). There are four grades of breast capsular contracture—Baker grades I through IV. The Baker grading is as follows: Grade 1—the breast is normally soft and looks natural Grade II—the breast is a little firm but looks normal Grade III—the breast is firm and looks abnormal Grade IV—the breast is hard, painful, and looks abnormal. of developed or is at risk of developing capsular contracture a topical composition.
compound,measurement,value
"COc1ccc2cc([C@H](C)C(=O)O)ccc2c1 [Aleve, naproxen sodium]",response of capsular contracture to treatment,without result
